# Reference: PubChem BioAssay AID2060907 (Molecular Pharmacology Branch, DTP, NCI, 2025)
# Tested on: 388556-164-R-J1-PDC complex spheroid viability
# Experiment: Anticancer human tumor 388556-164-R-J1-PDC patient-derived colon adenocarcinoma cell line growth inhibition [RAS]
# Conditions: for IC50: curve of first compound; for viability, T/C: stronger effect = lower value
# Outline: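 Multi-cell-type spheroids: tumor cells plus HUVEC endothelial cells and mesenchymal stem cells. RAS-pathway inhibitors were combined with targeted agents, each dosed in half-log steps down from clinical Cmax, or from 10 microM when Cmax was unknown.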
# [1] = second compound 0.0316 µM, first compound 0.0316 µM
# [2] = second compound 0.0316 µM, first compound 0.1 µM
# [3] = second compound 0.0316 µM, first compound 0.316 µM
# [4] = second compound 0.0316 µM, first compound 1 µM
# [5] = second compound 0.0316 µM, first compound 3.16 µM
# [6] = second compound 0.0316 µM, first compound 10 µM
# [7] = second compound 0.1 µM, first compound 0.0316 µM
# [8] = second compound 0.1 µM, first compound 0.1 µM
# [9] = second compound 0.1 µM, first compound 0.316 µM
# [10] = second compound 0.1 µM, first compound 1 µM
# [11] = second compound 0.1 µM, first compound 3.16 µM
# [12] = second compound 0.1 µM, first compound 10 µM
# [13] = second compound 0.316 µM, first compound 0.0316 µM
# [14] = second compound 0.316 µM, first compound 0.1 µM
# [15] = second compound 0.316 µM, first compound 0.316 µM
# [16] = second compound 0.316 µM, first compound 1 µM
# [17] = second compound 0.316 µM, first compound 3.16 µM
# [18] = second compound 0.316 µM, first compound 10 µM
# [19] = second compound 1 µM, first compound 0.0316 µM
# [20] = second compound 1 µM, first compound 0.1 µM
# [21] = second compound 1 µM, first compound 0.316 µM
# [22] = second compound 1 µM, first compound 1 µM
# [23] = second compound 1 µM, first compound 3.16 µM
# [24] = second compound 1 µM, first compound 10 µM
# [25] = second compound 3.16 µM, first compound 0.0316 µM
# [26] = second compound 3.16 µM, first compound 0.1 µM
# [27] = second compound 3.16 µM, first compound 0.316 µM
# [28] = second compound 3.16 µM, first compound 1 µM
# [29] = second compound 3.16 µM, first compound 3.16 µM
# [30] = second compound 3.16 µM, first compound 10 µM
# [31] = second compound 10 µM, first compound 0.0316 µM
# [32] = second compound 10 µM, first compound 0.1 µM
# [33] = second compound 10 µM, first compound 0.316 µM
# [34] = second compound 10 µM, first compound 1 µM
# [35] = second compound 10 µM, first compound 3.16 µM
# [36] = second compound 10 µM, first compound 10 µM
# 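Also: spheroids exposed to compound for 7 days before readout.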
# 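For viability, T/C in this document: 100% = DMSO vehicle control luminescence.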
compound,measurement,setting,value
CCC(CC)c1cc(NC2CCC(N)C2)n2nccc2n1 (stereo unspecified) + C#Cc1c(F)ccc2cc(O)cc(-c3ncc4c(N5CC6CCC(C5)N6)nc(OCC56CCCN5CC(F)C6)nc4c3F)c12,IC50,second compound 0.0316 µM,3290 nM
same,IC50,second compound 0.1 µM,2310 nM
same,IC50,second compound 0.316 µM,2580 nM
same,IC50,second compound 1 µM,2490 nM
same,IC50,second compound 3.16 µM,1930 nM
same,IC50,second compound 10 µM,1320 nM
same,"viability, T/C",[1],98.2%
same,"viability, T/C",[2],97.2%
same,"viability, T/C",[3],109%
same,"viability, T/C",[4],101%
same,"viability, T/C",[5],50.7%
same,"viability, T/C",[6],32.1%
same,"viability, T/C",[7],98.2%
same,"viability, T/C",[8],99.1%
same,"viability, T/C",[9],102%
same,"viability, T/C",[10],94.7%
same,"viability, T/C",[11],33.4%
same,"viability, T/C",[12],30.8%
same,"viability, T/C",[13],102%
same,"viability, T/C",[14],98%
same,"viability, T/C",[15],83.1%
same,"viability, T/C",[16],96.7%
same,"viability, T/C",[17],40.3%
same,"viability, T/C",[18],27.3%
same,"viability, T/C",[19],82.5%
same,"viability, T/C",[20],83.3%
same,"viability, T/C",[21],68.8%
same,"viability, T/C",[22],86.8%
same,"viability, T/C",[23],42%
same,"viability, T/C",[24],24.2%
same,"viability, T/C",[25],73.9%
same,"viability, T/C",[26],69.7%
same,"viability, T/C",[27],66.3%
same,"viability, T/C",[28],78.8%
same,"viability, T/C",[29],33.2%
same,"viability, T/C",[30],20.8%
same,"viability, T/C",[31],64.1%
same,"viability, T/C",[32],65.6%
same,"viability, T/C",[33],66.4%
same,"viability, T/C",[34],60.4%
same,"viability, T/C",[35],16.9%
same,"viability, T/C",[36],15.5%
CC(C)NCC(C(=O)N1CCN(c2ncnc3c2C(C)CC3O)CC1)c1ccc(Cl)cc1 (stereo unspecified) + C#Cc1c(F)ccc2cc(O)cc(-c3ncc4c(N5CC6CCC(C5)N6)nc(OCC56CCCN5CC(F)C6)nc4c3F)c12,IC50,second compound 0.0316 µM,> 10000 nM
same,IC50,second compound 0.1 µM,> 10000 nM
same,IC50,second compound 0.316 µM,> 10000 nM
same,IC50,second compound 1 µM,> 10000 nM
same,IC50,second compound 3.16 µM,> 10000 nM
same,IC50,second compound 10 µM,8860 nM
same,"viability, T/C",[1],95.9%
same,"viability, T/C",[2],106%
same,"viability, T/C",[3],109%
same,"viability, T/C",[4],98.6%
same,"viability, T/C",[5],99.2%
same,"viability, T/C",[6],100%
same,"viability, T/C",[7],98.5%
same,"viability, T/C",[8],107%
same,"viability, T/C",[9],99.7%
same,"viability, T/C",[10],96%
same,"viability, T/C",[11],113%
same,"viability, T/C",[12],93.6%
same,"viability, T/C",[13],99%
same,"viability, T/C",[14],105%
same,"viability, T/C",[15],88.5%
same,"viability, T/C",[16],99.2%
same,"viability, T/C",[17],107%
same,"viability, T/C",[18],82.3%
same,"viability, T/C",[19],95.5%
same,"viability, T/C",[20],93.1%
same,"viability, T/C",[21],69.4%
same,"viability, T/C",[22],92.1%
same,"viability, T/C",[23],93.5%
same,"viability, T/C",[24],77.8%
same,"viability, T/C",[25],80.6%
same,"viability, T/C",[26],66.6%
same,"viability, T/C",[27],75.9%
same,"viability, T/C",[28],83.8%
same,"viability, T/C",[29],88.4%
same,"viability, T/C",[30],59.4%
same,"viability, T/C",[31],69.2%
same,"viability, T/C",[32],67.3%
same,"viability, T/C",[33],73.2%
same,"viability, T/C",[34],87.2%
same,"viability, T/C",[35],42%
same,"viability, T/C",[36],53.3%
CC(C)n1nc(-c2ccc3oc(N)nc3c2)c2c(N)ncnc21 + C=CC(=O)N1CCN(c2nc(OCC3CCCN3C)nc3c(F)c(-c4nc(N)cc(C)c4C(F)(F)F)c(Cl)cc23)C(C)C1,IC50,second compound 0.00316 µM,69 nM
same,IC50,second compound 0.01 µM,74.3 nM
same,IC50,second compound 0.0316 µM,64.6 nM
same,IC50,second compound 0.1 µM,77.2 nM
same,IC50,second compound 0.316 µM,75 nM
same,IC50,second compound 1 µM,51.4 nM
same,"viability, T/C","second compound 0.00316 µM, first compound 0.000316 µM",102%
same,"viability, T/C","second compound 0.00316 µM, first compound 0.001 µM",98.2%
same,"viability, T/C","second compound 0.00316 µM, first compound 0.00316 µM",91.9%
same,"viability, T/C","second compound 0.00316 µM, first compound 0.01 µM",74.8%
same,"viability, T/C","second compound 0.00316 µM, first compound 0.0316 µM",66.5%
same,"viability, T/C","second compound 0.00316 µM, first compound 0.1 µM",42.7%
same,"viability, T/C","second compound 0.01 µM, first compound 0.000316 µM",100%
same,"viability, T/C","second compound 0.01 µM, first compound 0.001 µM",95.3%
same,"viability, T/C","second compound 0.01 µM, first compound 0.00316 µM",95.3%
same,"viability, T/C","second compound 0.01 µM, first compound 0.01 µM",76.7%
same,"viability, T/C","second compound 0.01 µM, first compound 0.0316 µM",56%
same,"viability, T/C","second compound 0.01 µM, first compound 0.1 µM",47.8%
same,"viability, T/C","second compound 0.0316 µM, first compound 0.000316 µM",104%
same,"viability, T/C","second compound 0.0316 µM, first compound 0.001 µM",95.6%
same,"viability, T/C","second compound 0.0316 µM, first compound 0.00316 µM",80.1%
same,"viability, T/C","second compound 0.0316 µM, first compound 0.01 µM",76%
same,"viability, T/C",[1],59.6%
same,"viability, T/C",[2],43.5%
same,"viability, T/C","second compound 0.1 µM, first compound 0.000316 µM",96.2%
same,"viability, T/C","second compound 0.1 µM, first compound 0.001 µM",108%
same,"viability, T/C","second compound 0.1 µM, first compound 0.00316 µM",83.2%
same,"viability, T/C","second compound 0.1 µM, first compound 0.01 µM",84.5%
same,"viability, T/C",[7],63%
same,"viability, T/C",[8],46.1%
same,"viability, T/C","second compound 0.316 µM, first compound 0.000316 µM",99.7%
same,"viability, T/C","second compound 0.316 µM, first compound 0.001 µM",98%
same,"viability, T/C","second compound 0.316 µM, first compound 0.00316 µM",92.2%
same,"viability, T/C","second compound 0.316 µM, first compound 0.01 µM",79.6%
same,"viability, T/C",[13],59.4%
same,"viability, T/C",[14],46.9%
same,"viability, T/C","second compound 1 µM, first compound 0.000316 µM",90.6%
same,"viability, T/C","second compound 1 µM, first compound 0.001 µM",99.9%
same,"viability, T/C","second compound 1 µM, first compound 0.00316 µM",95.2%
same,"viability, T/C","second compound 1 µM, first compound 0.01 µM",81.1%
same,"viability, T/C",[19],55.4%
same,"viability, T/C",[20],43.1%
